Source: patent US20080076786A1, “USE OF RADICAL-SCAVENGING COMPOUNDS FOR TREATMENT AND PREVENTION OF NO-DEPENDENT MICROCIRCULATION DISORDERS” (priority 2001, published 2008)

How the values were obtained:
[1] = test system: reoccurrence of myocardial infarcts (MI); conditions: chronic application, published meta analysis; cited from earlier work
NO Synthetase = NO Synthetase knock-out mice, NO synthetase activity blocked or partially inhibited; type: in vivo; conditions: NO Synthetase activity blocked or reduced; compared with pravastatin on elevating NO production
stroke risk = conditions: ESPS-2, compared with low-dose aspirin / aspirin alone; cited from earlier work
[2] = test system: oxygen radicals and proteinuria; conditions: experimental animals with aminonucleoside nephropathy; cited from earlier work
lipid peroxidation = conditions: human nonneoplastic lung tissue; cited from earlier work

| Compound | reduction of the incidence of reoccurrence of myocardial infarcts [1] [%] | effect of NO sparing (preventing NO destruction) (NO Synthetase) | reduction of stroke risk (stroke risk) | oxygen radicals and proteinuria [2] | lipid peroxidation (lipid peroxidation) |
| --- | --- | --- | --- | --- | --- |
| CC(=O)Oc1ccccc1C(=O)O [Aspirin, acetyl salicylic acid] | 18 |  |  |  |  |
| OCCN(CCO)c1nc(N2CCCCC2)c2nc(N(CCO)CCO)nc(N3CCCCC3)c2n1 [Dipyridamole, 2,6-bis(diethanolamino)-4,8-dipiperidino-pyrimido[5,4-d]pyrimidine] |  | seen as independent effect | as effective as low-dose aspirin | suppress oxygen radicals and proteinuria | Inhibition of lipid peroxidation |
